# Patent publication US20060069132A1, “Azolecarboxamide herbicides” (priority 2004, published 2006)
# Like-named read-outs stand apart in the source and are kept apart here.
# Experiments:
# large crabgrass = test: Test A pre-/postemergence herbicide test; format: in vivo, Digitaria sanguinalis; conditions: for pest or weed control at 500 g/ha / pest or weed control at 2000 g/ha: Digitaria sanguinalis, 240 h
# Procedure, shortened: (§1)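 Seeds sown in sandy loam received a preemergence directed soil spray of compound in non-phytotoxic solvent with surfactant; postemergence plants (2–10 cm, one- to two-leaf stage) were sprayed to runoff at the same time. After ~10 days in greenhouse, injury was rated visually versus untreated controls (0 = no effect, 100 = complete control).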
# rice = test: Test B pre-/postemergence herbicide test; format: in vivo, Oryza sativa; conditions: for Plant response rating, Rice: preemergence
# Procedure, shortened: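 Greenhouse pot assay with simultaneous preemergence (treated seed) and postemergence (2–18 cm seedlings) applications of surfactant-containing, non-phytotoxic solvent formulations. Response scored visually 13–15 days later on a 0–100 scale, 100 meaning complete control.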
# velvetleaf = test: Test A pre-/postemergence herbicide test; format: in vivo, Abutilon theophrasti; conditions: for pest or weed control at 500 g/ha / pest or weed control at 2000 g/ha: Abutilon theophrasti, 240 h
# Procedure, shortened: as §1
# morningglory [1] = test: Test C pre-/postemergence herbicide test; format: in vivo, Ipomoea coccinea; parameters: key to Plant response rating, Morningglory: 0 = no effect, 100 = complete control
# Procedure, shortened: (§2)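 Seeds were planted and sprayed preemergence with test chemicals in a non-phytotoxic solvent mixture containing surfactant; postemergence treatments went onto plants 2 to 18 cm tall (1- to 4-leaf stage). After 12 to 14 days in a greenhouse, injury was rated visually against untreated controls on a 0–100 scale.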
# [2] = test system: smallflower umbrella sedge; test: Test C flooded paddy test; format: in vivo, Cyperus difformis
# barnyardgrass = test: Test B flooded paddy test; format: in vivo, Echinochloa crus-galli; conditions: 1000 g ai/ha, visual rating, scale 0 to 100 (0 no effect, 100 complete control), 13 to 15 days
# Procedure, shortened: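 Postemergence plants were sprayed with formulated test chemicals at 2 to 18 cm height (1- to 4-leaf stage); paddy species were grown to the 2-leaf stage. After 13 to 15 days in a greenhouse, injury was rated visually against untreated controls on a 0–100 scale (0 = no effect, 100 = complete control).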
# morningglory [3] = test: Test B pre-/postemergence herbicide test; format: in vivo, Ipomoea coccinea; conditions: for Plant response rating, Morningglory: preemergence; for Morningglory plant response rating: postemergence, visual rating
# Procedure, shortened: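 Seeds were planted and treated preemergence with compounds formulated in a non-phytotoxic solvent mixture containing surfactant, while plants at the 1- to 4-leaf stage (2 to 18 cm) received postemergence sprays. Flooded paddy plants were grown to the 2-leaf stage. After 13 to 15 days in a greenhouse, injury was visually rated 0–100 against untreated controls.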
# bermudagrass = test: Test C pre-/postemergence herbicide test; format: in vivo, Cynodon dactylon
# Procedure, shortened: as §2
# [4] = Postemergence, 500 g ai/ha, 0 to 100 scale, 0 no effect, 100 complete control
# [5] = Postemergence, 2000 g ai/ha, 0 to 100 scale, 0 no effect, 100 complete control
# [6] = Preemergence, 2000 g ai/ha, visual rating, 0 to 100 scale (0 no effect, 100 complete control)
# [7] = 500 g ai/ha, visual rating 0-100, 0 no effect, 100 complete control
# [8] = 125 g ai/ha, 0 to 100 scale, 0 is no effect, 100 is complete control
# [9] = 125 g ai/ha, scale 0 (no effect) to 100 (complete control), visual, 12 to 14 days, preemergence
# [10] = Postemergence, 250 g ai/ha, scale 0 to 100, 0 no effect, 100 complete control
# [11] = postemergence, 125 g ai/ha, scale 0 to 100
# [12] = postemergence, 62 g ai/ha, scale 0 to 100
compound,measurement,setting,value
CCn1nc(C(C)(C)C)cc1C(=O)Nc1cccc(C#N)c1 [Compound 139],"Crabgrass, Large plant response rating",large crabgrass; [4],0
same,"Plant response rating, Crabgrass, Large",large crabgrass; [5],30
same,"Crabgrass, Large plant response rating","large crabgrass; Preemergence, 500 g ai/ha, visual rating, 0 to 100 scale (0 no effect, 100 complete control)",45
same,"Crabgrass, Large plant response rating",large crabgrass; [6],75
same,"Plant response rating, Rice",rice; [7],60
same,"Plant response rating, Rice",rice; [8],30
same,Velvetleaf plant response rating,velvetleaf; [4],25
same,"Plant response rating, Velvetleaf",velvetleaf; [5],40
same,Velvetleaf plant response rating,velvetleaf; [6],80
same,Velvetleaf plant response rating,"velvetleaf; preemergence, 500 g ai/ha, visual injury, 0 to 100 scale (0 no effect, 100 complete control)",50
same,"Plant response rating (0 = no effect, 100 = complete control), Morningglory","morningglory [1]; 62 g ai/ha, preemergence",0
same,"Plant response rating, Morningglory",morningglory [1]; [9],10
same,"Plant response rating, Morningglory",morningglory [1]; [10],60
same,"Plant response rating, Morningglory",morningglory [1]; [11],50
same,"Plant response rating, Morningglory",morningglory [1]; [12],0
same,"Sedge, Umbrella plant response rating","[2]; 62 g ai/ha, scale 0 to 100 (0 no effect, 100 complete control)",75
same,"Sedge, Umbrella plant response rating","[2]; 125 g ai/ha, scale 0 to 100 (0 no effect, 100 complete control)",80
same,"Sedge, Umbrella plant response rating","[2]; 250 g ai/ha, scale of 0 to 100, 0 is no effect, 100 is complete control",85
same,"Plant response rating, Sedge, Umbrella","[2]; 500 g ai/ha, visual rating after 12 to 14 days, scale 0 to 100 (0 no effect, 100 complete control)",85
same,Barnyardgrass plant response rating,barnyardgrass,70
same,"Plant response rating, Morningglory",morningglory [3]; [7],30
same,Morningglory plant response rating,"morningglory [3]; 125 g ai/ha, scale 0 (no effect) to 100 (complete control)",10
same,Morningglory plant response rating,"morningglory [3]; 500 g ai/ha, scale 0 (no effect) to 100 (complete control)",100
same,"Plant response rating, Morningglory",morningglory [3]; [8],10
same,"Plant response rating, Bermudagrass","bermudagrass; 31 g ai/ha, scale 0 to 100, 0 no effect, 100 complete control, last section of Table C (species set of preemergence test)",10
same,"Plant response rating (0 = no effect, 100 = complete control), Bermudagrass","bermudagrass; 62 g ai/ha, preemergence",60
same,"Plant response rating, Bermudagrass",bermudagrass; [9],90
same,"Plant response rating, Bermudagrass","bermudagrass; 250 g ai/ha, scale 0 to 100 (0 no effect, 100 complete control), visual, 12 to 14 days, preemergence",95
same,"Plant response rating, Bermudagrass",bermudagrass; [10],0
same,"Plant response rating, Bermudagrass",bermudagrass; [11],0
same,"Plant response rating, Bermudagrass","bermudagrass; postemergence, 31 g ai/ha, scale 0 to 100",0
same,"Plant response rating, Bermudagrass",bermudagrass; [12],0
"CCn1nc(C(C)(C)C)cc1C(=O)Nc1cc(C(=O)N(C)C)ccc1F [Compound 6, N-[5-[(dimethylamino)carbonyl]-2-fluorophenyl]-3-(1,1-dimethylethyl)-1-ethyl-1H-pyrazole-5-carboxamide]",pest or weed control at 500 g/ha,"large crabgrass; post-emergence, Postemergence, 500 g ai/ha, 0 to 100 scale, 0 no effect, 100 complete control, read-out: Plant response rating, Crabgrass, Large",80%
same,pest or weed control at 2000 g/ha,"large crabgrass; post-emergence, Postemergence, 2000 g ai/ha, 0 to 100 scale, 0 no effect, 100 complete control, read-out: Plant response rating, Crabgrass, Large",90%
same,pest or weed control at 500 g/ha,"large crabgrass; pre-emergence, Preemergence, 500 g ai/ha, visual rating, 0 to 100 scale (0 no effect, 100 complete control), read-out: Crabgrass, Large plant response rating",100%
same,pest or weed control at 2000 g/ha,"large crabgrass; pre-emergence, Preemergence, 2000 g ai/ha, 0 to 100 scale, 0 no effect, 100 complete control, read-out: Crabgrass, Large plant response rating",100%
same,Rice plant response rating,"rice; Preemergence, 500 g ai/ha, scale 0 to 100",100
same,pest or weed control at 500 g/ha,"velvetleaf; post-emergence, Postemergence, 500 g ai/ha, 0 to 100 scale, 0 no effect, 100 complete control, read-out: Plant response rating, Velvetleaf",90%
same,pest or weed control at 2000 g/ha,"velvetleaf; post-emergence, Postemergence, 2000 g ai/ha, 0 to 100 scale, 0 no effect, 100 complete control, read-out: Plant response rating, Velvetleaf",95%
same,pest or weed control at 500 g/ha,"velvetleaf; pre-emergence, Preemergence, 500 g ai/ha, visual rating, 0 to 100 scale (0 no effect, 100 complete control), read-out: Velvetleaf plant response rating",100%
same,pest or weed control at 2000 g/ha,"velvetleaf; pre-emergence, Preemergence, 2000 g ai/ha, 0 to 100 scale, 0 no effect, 100 complete control, read-out: Velvetleaf plant response rating",100%
same,"Plant response rating (0 = no effect, 100 = complete control), Morningglory","morningglory [1]; 62 g ai/ha, preemergence",0
same,pest or weed control at 250 g/ha,"morningglory [1]; Ipomoea, pre-emergence, 250 g ai/ha, scale 0 to 100 (0 no effect, 100 complete control), visual, 12 to 14 days, read-out: Plant response rating, Morningglory",30%
same,Morningglory plant response rating,"morningglory [1]; Preemergence, 500 g ai/ha, scale 0 to 100, 0 no effect, 100 complete control",70
same,pest or weed control at 62 g/ha,"[2]; Cyperus difformis, 62 g ai/ha, scale 0 to 100 (0 no effect, 100 complete control), read-out: Sedge, Umbrella plant response rating",70%
same,pest or weed control at 125 g/ha,"[2]; Cyperus difformis, 125 g ai/ha, scale of 0 to 100, 0 is no effect, 100 is complete control, read-out: Sedge, Umbrella plant response rating",90%
same,pest or weed control at 250 g/ha,"[2]; Cyperus difformis, 250 g ai/ha, visual rating after 12 to 14 days, scale 0 to 100 (0 no effect, 100 complete control), read-out: Plant response rating, Sedge, Umbrella",90%
same,pest or weed control at 500 g/ha,"[2]; Cyperus difformis, 500 g ai/ha, visual rating after 12 to 14 days, scale 0 to 100 (0 no effect, 100 complete control), read-out: Plant response rating, Sedge, Umbrella",90%
same,pest or weed control at 1000 g/ha,"barnyardgrass; Echinochloa crus-galli, 336 h, read-out: Barnyardgrass plant response rating",90%
same,pest or weed control at 125 g/ha,"morningglory [3]; Ipomoea, post-emergence, 336 h, Postemergence, 125 g ai/ha, scale 0 (no effect) to 100 (complete control), read-out: Morningglory plant response rating",0%
same,pest or weed control at 500 g/ha,"morningglory [3]; Ipomoea, post-emergence, 336 h, Postemergence, 500 g ai/ha, visual rating after 13 to 15 days, scale 0 (no effect) to 100 (complete control), read-out: Plant response rating, Morningglory",0%
same,"Plant response rating (0 = no effect, 100 = complete control), Bermudagrass","bermudagrass; 62 g ai/ha, preemergence",80
same,pest or weed control at 125 g/ha,"bermudagrass; Cynodon dactylon, pre-emergence, 312 h, 125 g ai/ha, scale 0-100, read-out: Plant response rating, Bermudagrass",90%
same,pest or weed control at 250 g/ha,"bermudagrass; Cynodon dactylon, pre-emergence, 312 h, 250 g ai/ha, scale 0 to 100 (0 no effect, 100 complete control), visual, 12 to 14 days, read-out: Plant response rating, Bermudagrass",90%
same,pest or weed control at 500 g/ha,"bermudagrass; Cynodon dactylon, pre-emergence, 312 h, Preemergence, 500 g ai/ha, scale 0 to 100, 0 no effect, 100 complete control, read-out: Bermudagrass plant response rating",90%
